Results reported in US11299480B2, “2-arylsulfonamido-N-arylacetamide derivatized STAT3 inhibitors” (University of Hawaii, priority 2017, dated 2022).
≈ marks a conversion by molar mass, not a printed value. Like-named read-outs stand apart in the source and are kept apart here.

Assays:
[1] = Human liver microsomal (HLM) metabolic stability; conditions: liver microsomes
Caco-2 cells = experiment: Cell membrane permeability, Caco-2 cells assay; conditions: for Caco-2 Cells Permeability A to B / Caco-2 Cells Recovery A to B: apical to basolateral; for Caco-2 Cells Permeability A to B / Caco-2 Cells Permeability B to A: first number of cell, 10^−6 cm/sec; for Caco-2 Cells Recovery A to B / Caco-2 Cells Recovery B to A: second number of cell; for Caco-2 Cells Permeability B to A / Caco-2 Cells Recovery B to A: basolateral to apical
in vitro [2] = conditions: mouse, liver microsomes
in vitro [3] = conditions: human, liver microsomes
[4] = Aqueous solubility (PBS, SGF, SIF); conditions: for Solubility PBS: PBS buffer pH 7.4; for Solubility SIF: simulated intestinal fluid
[5] = Mouse liver microsomal (MLM) metabolic stability; conditions: mouse, liver microsomes
in vitro [6] = conditions: human, Caco-2
Stat3 [7] = target: Stat3 (Homo sapiens (Human), UniProt P40763); experiment: Stat3 DNA-binding activity in nuclear extracts of treated MDA-MB-231 cells, EMSA; assay type: cell-based; conditions: 10 μM
Method: (§1) FIG. 3. Effects of select compounds of the present invention on Stat3 DNA-binding activity and Stat3 tyrosine phosphorylation in cells. (FIG. 3A) EMSA analysis of Stat3 DNA-binding activity in nuclear extracts of equal total protein prepared from cells treated with DMSO (0 as control, Con), 5 or 10 μM of compounds for 1-34 h. Positions of Stat3:DNA complexes in gel are labeled. […] Positions of Stat3:DNA complexes or proteins in gel are shown; control (0 or Con) lane represents whole-cell lysates or nuclear extracts prepared from 0.05% DMSO-treated cells. […] Data are representative of 2-3 independent determinations.
The ^32P-labeled oligonucleotide probes used were hSIE (high affinity sis-inducible element from the c-fos gene, m67 variant, 5′-[…]) (SEQ ID NO: 1) that binds Stat1 and Stat3 and MGFe (mammary gland factor element from the bovine β-casein gene promoter, 5′-[…]) (SEQ ID NO: 2) for Stat1 and Stat5 binding. Except where indicated, nuclear extracts were pre-incubated with compound for 30 min at room temperature prior to incubation with the radiolabeled probe for 30 min at 30° C. before subjecting to EMSA analysis. Where appropriate, bands corresponding to Stat3:DNA complexes were scanned and quantified for each concentration of compound using ImageJ and plotted as percent of control (DMSO) against concentration of compound, from which the IC50 values were derived.
Select compounds of the invention were investigated for their inhibitory effects of the active analogs on intracellular Stat3 signaling. […] Nuclear extracts were prepared and subjected to EMSA analysis for Stat3 DNA-binding activity. […] Stat3 DNA-binding activity in MDA-MB-231 cells was inhibited by both Examples 1 and 5 following treatment at 3 h, with little change at 1 h (FIG. 3A).

Stat1 = Stat1 DNA-binding activity in vitro, EMSA (MGFe probe); assay type: biochemical; conditions: 10 μM or 0-30 μM compound
From the text: FIG. 2. Effects of select compounds of the present invention on Stat1 and Stat5 DNA-binding activity. […] Positions of Stat:DNA complexes in gel are labeled; control lanes (0 or Con) represent nuclear extracts pre-treated with 10% DMSO. Data are representative of 1-3 independent determinations. […] Where appropriate, bands corresponding to Stat3:DNA complexes were scanned and quantified for each concentration of compound using ImageJ and plotted as percent of control (DMSO) against concentration of compound, from which the IC50 values were derived. In order to determine the specificity of select new analogs active against Stat3 activity, the inventors investigated the effects on the inhibition of other STAT family members, including Stat1 and Stat5 DNA-binding activity in vitro.

pY705Stat3 [8] = experiment: Constitutive Stat3 tyrosine phosphorylation, immunoblot, MDA-MB-231 cells; assay type: cell-based, human; conditions: MDA-MB-231, 5 μM, 1 h treatment
Method: as §1
(§2) All antibodies tested were purchased from Cell Signaling Technology.
(§3) Altogether, the new analogs show strong, albeit variable degrees of inhibition of constitutive Stat3 DNA-binding activity and Tyr phosphorylation in human tumor cells.

pY705Stat3 [9] = experiment: Constitutive Stat3 tyrosine phosphorylation, immunoblot, MDA-MB-468 cells; assay type: cell-based, human; conditions: MDA-MB-468, 5 μM, 1 h treatment (inhibition stated only for MDA-MB-231)
Method: as §1, §2, §3

Stat3 [10] = target: Stat3 (Mus musculus, UniProt P42227); assay type: biochemical
Method: FIG. 1. Effect of select compounds of the present invention on Stat3 DNA-binding activity in vitro. […] Positions of Stat3:DNA complexes in gel are labeled; control lanes (0) represent nuclear extracts pre-treated with 10% DMSO.
Except where indicated, nuclear extracts were pre-incubated with compound for 30 min at room temperature prior to incubation with the radiolabeled probe for 30 min at 30° C. before subjecting to EMSA analysis. Where appropriate, bands corresponding to Stat3:DNA complexes were scanned and quantified for each concentration of compound using ImageJ and plotted as percent of control (DMSO) against concentration of compound, from which the IC50 values were derived.

[11] = simulated gastric fluid (SGF), pH 1.2, simulated gastric fluid
[12] = Stat3 DNA-binding activity in vitro, nuclear extracts pre-incubated with compound 30 min at room temperature, hSIE probe, read-out: EMSA IC50

Chain of Stat3 (Mus musculus, UniProt P42227) (P42227 2-770 limits assumed): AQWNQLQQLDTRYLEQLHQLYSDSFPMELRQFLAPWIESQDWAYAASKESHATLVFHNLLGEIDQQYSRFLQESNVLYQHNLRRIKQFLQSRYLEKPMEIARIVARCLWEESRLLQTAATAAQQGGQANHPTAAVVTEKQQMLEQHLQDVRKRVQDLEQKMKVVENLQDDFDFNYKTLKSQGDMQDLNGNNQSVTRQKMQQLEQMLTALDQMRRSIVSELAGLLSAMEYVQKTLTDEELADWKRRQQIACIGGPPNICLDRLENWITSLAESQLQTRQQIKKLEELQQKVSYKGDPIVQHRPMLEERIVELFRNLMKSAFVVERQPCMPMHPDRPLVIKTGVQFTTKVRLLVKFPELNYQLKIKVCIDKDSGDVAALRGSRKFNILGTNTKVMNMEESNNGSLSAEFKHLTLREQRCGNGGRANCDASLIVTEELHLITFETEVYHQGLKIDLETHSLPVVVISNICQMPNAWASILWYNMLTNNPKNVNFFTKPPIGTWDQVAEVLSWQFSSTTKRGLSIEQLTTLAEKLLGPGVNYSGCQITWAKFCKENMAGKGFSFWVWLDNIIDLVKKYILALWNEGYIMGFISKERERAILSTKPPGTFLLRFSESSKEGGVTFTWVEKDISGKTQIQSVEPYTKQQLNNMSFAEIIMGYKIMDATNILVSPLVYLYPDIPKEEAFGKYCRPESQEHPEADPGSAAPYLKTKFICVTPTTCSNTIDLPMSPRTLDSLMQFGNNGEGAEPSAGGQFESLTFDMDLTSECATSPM
Chain of Stat3 (Homo sapiens (Human), UniProt P40763) (P40763 whole entry): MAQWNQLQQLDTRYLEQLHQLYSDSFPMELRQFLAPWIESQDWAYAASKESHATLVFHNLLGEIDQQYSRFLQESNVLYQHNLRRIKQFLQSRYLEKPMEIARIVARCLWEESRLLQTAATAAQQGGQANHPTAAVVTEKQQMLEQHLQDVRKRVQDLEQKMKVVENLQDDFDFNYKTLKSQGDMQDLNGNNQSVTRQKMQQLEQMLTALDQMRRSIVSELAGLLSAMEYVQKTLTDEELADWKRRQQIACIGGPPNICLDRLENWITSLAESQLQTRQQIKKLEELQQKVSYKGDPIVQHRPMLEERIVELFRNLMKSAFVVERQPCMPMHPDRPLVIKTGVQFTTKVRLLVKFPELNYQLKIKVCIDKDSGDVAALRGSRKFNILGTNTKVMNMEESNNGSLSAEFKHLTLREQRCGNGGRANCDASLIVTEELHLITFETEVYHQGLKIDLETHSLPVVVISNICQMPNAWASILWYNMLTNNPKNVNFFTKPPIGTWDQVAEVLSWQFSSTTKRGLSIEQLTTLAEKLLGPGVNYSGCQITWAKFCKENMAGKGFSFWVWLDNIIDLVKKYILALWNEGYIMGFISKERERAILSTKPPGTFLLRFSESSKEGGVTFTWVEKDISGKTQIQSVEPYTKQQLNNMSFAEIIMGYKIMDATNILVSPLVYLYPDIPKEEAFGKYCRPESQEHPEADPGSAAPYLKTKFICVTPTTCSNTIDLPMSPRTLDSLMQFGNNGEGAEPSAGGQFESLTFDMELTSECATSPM

C[C@H](C(=O)N(Cc1ccc(C2CCCCC2)cc1)c1ccc(C(=O)[O-])c(O)c1)N(C)S(=O)(=O)c1c(F)c(F)c(F)c(F)c1F.[Na+]
Metabolic Stability Half-Life HLM [1]: 4 min | Caco-2 Cells Permeability A to B (Caco-2 cells): 0 | Caco-2 Cells Recovery A to B (Caco-2 cells): 6% | Caco-2 Cells Permeability B to A (Caco-2 cells): 0 | Caco-2 Cells Recovery B to A (Caco-2 cells): 2% | Caco-2 permeability (Caco-2 cells; compounds with cyclohexyl group instead of THP ring): no appreciable permeability | half-life (in vitro [2]): ≤ 5 min | solubility (physchem; [11]): 1.3 µg/mL | half-life (in vitro [3]): ≤ 5 min | solubility in PBS buffer pH 7.4 [4]: 127 μg/mL | solubility in simulated intestinal fluid (SIF) [4]: 127 µg/mL | Solubility PBS [4]: 127 micrograms/milliliter | Solubility SIF [4]: 127 micrograms/milliliter | Metabolic Stability Half-Life MLM [5]: 5 min

O=C([O-])c1ccc(N(Cc2ccc(C3CCOCC3)cc2)C(=O)[C@H]2CCCN2S(=O)(=O)c2c(F)c(F)c(F)c(F)c2F)cc1O.[Na+]
Caco-2 Cells Permeability A to B (Caco-2 cells): 0.2 | Caco-2 Cells Recovery A to B (Caco-2 cells): 34% | Caco-2 Cells Permeability B to A (Caco-2 cells): 0.2 | Caco-2 Cells Recovery B to A (Caco-2 cells): 60% | half-life (in vitro [2]): 18 min | solubility (physchem; PBS buffer, pH 7.4, aqueous buffer): 132 µg/mL | solubility (physchem; [11]): 0.4 µg/mL | solubility (physchem; simulated intestinal fluid (SIF), fassgf or other biorelevant): 129 µg/mL | half-life (in vitro [3]): 15 min | Papp (in vitro [6]): 0.1 ×10⁻⁶ cm/s

C[C@@H](C(=O)N(Cc1ccc(C2CCCCC2)cc1)c1ccc(C(=O)O)c(O)c1)N(C)S(=O)(=O)c1c(F)c(F)c(F)c(F)c1F [Example 5, (S)-4-(N-(4-Cyclohexylbenzyl)-2-((2,3,4,5,6-pentafluoro-N-methylphenyl)sulfonamido)propan-amido)-2-hydroxybenzoic acid]
Stat3 DNA-binding activity in MDA-MB-231 cells (Stat3 [7]; 1 h treatment): little change | Stat3 DNA-binding activity in MDA-MB-231 cells (Stat3 [7]; 3 h treatment): inhibited | Stat3 DNA-binding activity in MDA-MB-231 cells (Stat3 [7]; 24 h treatment): inhibited | effect on Stat1 DNA-binding activity (Stat1): inhibited Stat1 activity to a moderate extent

O=C(O)c1ccc(N(Cc2ccc(C3CCCCC3)cc2)C(=O)[C@@H]2CCCN2S(=O)(=O)c2c(F)c(F)c(F)c(F)c2F)cc1O [Example 26, (S)-4-(N-(4-Cyclohexylbenzyl)-1-((pentafluorophenyl)sulfonyl)pyrrolidine-2-carboxamido)-2-hydroxybenzoic acid]
pY705Stat3 levels (pY705Stat3 [8]): inhibited pY705Stat3 levels | pY705Stat3 levels (pY705Stat3 [9]): only inhibited pY705Stat3 levels in MDA-MB-231 | IC50 (Stat3 [10]; [12]): 7200 ± 3400 nM

C[C@H](C(=O)N(Cc1ccc(C2CCCCC2)cc1)c1ccc(C(=O)NO)cc1F)N(C)S(=O)(=O)c1c(F)c(F)c(F)c(F)c1F [Example 38, (R)-4-(N-(4-Cyclohexylbenzyl)-2-((2,3,4,5,6-pentafluoro-N-methylphenyl)sulfonamido)propanamido)-3-fluoro-N-hydroxybenzamide]
solubility (physchem; [11]): 0.8 µg/mL (≈ 1.22 µM) | solubility in PBS buffer pH 7.4 [4]: 4.7 μg/mL | solubility in simulated intestinal fluid (SIF) [4]: 72 µg/mL (≈ 109 µM) | Solubility PBS [4]: 4.7 micrograms/milliliter | Solubility SIF [4]: 72 micrograms/milliliter

C[C@H](C(=O)N(Cc1ccc(C2CCOCC2)cc1)c1ccc(C(=O)[O-])c(O)c1)N(C)S(=O)(=O)c1c(F)c(F)c(F)c(F)c1F.[Na+] [Example 59, Sodium (R)-2-hydroxy-4-(2-((2,3,4,5,6-pentafluoro-N-methylphenyl)sulfonamido)-N-(4-(tetrahydro-2H-pyran-4-yl)benzyl)propanamido)benzoate]
Metabolic Stability Half-Life HLM [1]: 5 min | Caco-2 Cells Recovery B to A (Caco-2 cells): 40% | half-life (in vitro [2]): ≤ 5 min | half-life (in vitro [3]): ≤ 5 min | Papp B→A (in vitro [6]): 0.7 ×10⁻⁶ cm/s | recovery (in vitro [6]): 31% | Metabolic Stability Half-Life MLM [5]: 4 min

O=C(O)c1ccc(N(Cc2ccc(C3CCOCC3)cc2)C(=O)[C@H]2CCCN2S(=O)(=O)c2c(F)c(F)c(F)c(F)c2F)c(F)c1 [Example 60, (R)-3-Fluoro-4-(1-((perfluorophenyl)sulfonyl)-N-(4-(tetrahydro-2H-pyran-4-yl)benzyl)pyrrolidine-2-carboxamido)benzoic acid]
Caco-2 Cells Permeability A to B (Caco-2 cells): 0.1 | Caco-2 Cells Recovery A to B (Caco-2 cells): 8% | Caco-2 Cells Permeability B to A (Caco-2 cells): 0.1 | Caco-2 Cells Recovery B to A (Caco-2 cells): 67% | half-life (in vitro [2]): 26 min | half-life (in vitro [3]): 54 min | Papp (in vitro [6]): 0.2 ×10⁻⁶ cm/s

CC(C)(C)c1ccc(CN(C(=O)[C@H]2CCN2S(=O)(=O)c2c(F)c(F)c(F)c(F)c2F)c2ccc(C(=O)O)c(O)c2)cc1 [Example 130, (R)-4-(N-(4-(tert-butyl)benzyl)-1-((perfluorophenyl)sulfonyl)azetidine-2-carboxamido)-2-hydroxybenzoic acid]
IC50 (Stat3 [10]; [12]): 2170 ± 298 nM

CC(C)(C)c1ccc(CN(C(=O)[C@H]2CCN2S(=O)(=O)c2c(F)c(F)c(F)c(F)c2F)c2ccc(C(=O)O)cc2F)cc1 [Example 131, (R)-4-(N-(4-(tert-butyl)benzyl)-1-((perfluorophenyl)sulfonyl)azetidine-2-carboxamido)-3-fluorobenzoic acid]
IC50 (Stat3 [10]; [12]): 3550 ± 97 nM

NC(=O)c1ccc(N(Cc2ccc(C3CCCCC3)cn2)C(=O)[C@H]2CCN2S(=O)(=O)c2c(F)c(F)c(F)c(F)c2F)cc1O [Example 143, (R)—N-(4-carbamoyl-3-hydroxyphenyl)-N-((5-cyclohexylpyridin-2-yl)methyl)-1-((perfluorophenyl)sulfonyl)azetidine-2-carboxamide]
IC50 (Stat3 [10]; EMSA, read-out: IC50, inhibition of Stat3 DNA-binding activity in vitro): 664 ± 167 nM | IC50 (Stat3 [10]; [12]): 664 ± 167 nM

O=C([C@H]1CCN1S(=O)(=O)c1c(F)c(F)c(F)c(F)c1F)N(Cc1cnc(C2CCCCC2)cn1)c1ccc2c(=O)[nH]cnc2c1 [Example 151, (R)—N-((5-cyclohexylpyrazin-2-yl)methyl)-N-(4-oxo-3,4-dihydroquinazolin-7-yl)-1-((perfluorophenyl)sulfonyl)azetidine-2-carboxamide]
IC50 (Stat3 [10]; [12]): 1460 ± 151 nM
